According to patent US12533428B2, “Multimodal fluorine-CY3/5/7-DOTA-hapten compositions, diagnostics, fluorescence guided surgery and radioimmunotherapy” (Memorial Sloan Kettering Cancer Center, priority 2019, dated 2026):

Experiment: In vivo biodistribution and pharmacokinetics in tumor free mice (gamma counter)
Method: The in vivo biodistribution and pharmacokinetics of ([^177Lu]-Compound 6) and BnDOTA[^177Lu] was investigated in tumor free mice. See FIGS. 17A-17B and Tables 2 and 3. Mice were dosed with radiolabeled probes at t=0 and sacrificed at various time points. Organs were harvested and activity was counted by gamma counter. Tables 2-3 show the serial biodistribution data for the analyzed organs of Compound 6 and Compound 2, respectively. FIG. 17A overlays the time course in activity in either vital tissues (left panel) or the blood (right panel) between the two probes.

For “BnDOTA[^177Lu] [[^177Lu]-Compound 2, reference compound]”, the Uptake (Blood, 1 h after dosing) was 0.068 ± 0.029 % injected Dose/gram, the Uptake (Blood, 2 h after dosing) was 0.013 ± 0.005 % injected Dose/gram and the Uptake (Blood, 4 h after dosing) was 0.001 ± 0 % injected Dose/gram. For the same substance, the Uptake (Blood, 24 h after dosing) was 0.001 ± 0 % injected Dose/gram, the Uptake (Blood, 48 h after dosing) was 0.001 ± 0.001 % injected Dose/gram and the Uptake (Bone, 1 h after dosing) was 0.04 ± 0.012 % injected Dose/gram. For the same substance, the Uptake (Bone, 2 h after dosing) was 0.325 ± 0.276 % injected Dose/gram, the Uptake (Bone, 4 h after dosing) was 0.015 ± 0.013 % injected Dose/gram and the Uptake (Bone, 24 h after dosing) was 0.01 ± 0.008 % injected Dose/gram. For the same substance, the Uptake (Bone, 48 h after dosing) was 0.018 ± 0.028 % injected Dose/gram, the Uptake (Brain, 1 h after dosing) was 0.015 ± 0.006 % injected Dose/gram and the Uptake (Brain, 2 h after dosing) was 0.025 ± 0.01 % injected Dose/gram. It also gave an Uptake (Brain, 4 h after dosing) of 0.01 ± 0 % injected Dose/gram, an Uptake (Brain, 24 h after dosing) of 0.001 ± 0 % injected Dose/gram and an Uptake (Brain, 48 h after dosing) of 0.001 ± 0.001 % injected Dose/gram. For the same substance, the “Biodistribution, comparison of the two probes” value (FIG. 17B) was “comparable biodistribution”, the Uptake (Heart, 1 h after dosing) was 0.033 ± 0.013 % injected Dose/gram and the Uptake (Heart, 2 h after dosing) was 0.023 ± 0.005 % injected Dose/gram. It also gave an Uptake (Heart, 4 h after dosing) of 0.01 ± 0 % injected Dose/gram, an Uptake (Heart, 24 h after dosing) of 0.01 ± 0 % injected Dose/gram and an Uptake (Heart, 48 h after dosing) of 0.016 ± 0.03 % injected Dose/gram. For the same substance, the Uptake (Kidneys, 1 h after dosing) was 0.86 ± 0.177 % injected Dose/gram, the Uptake (Kidneys, 2 h after dosing) was 0.8 ± 0.065 % injected Dose/gram and the Uptake (Kidneys, 4 h after dosing) was 0.695 ± 0.106 % injected Dose/gram. The Uptake (Kidneys, 24 h after dosing) was 0.448 ± 0.109 % injected Dose/gram, the Uptake (Kidneys, 48 h after dosing) was 0.233 ± 0.153 % injected Dose/gram and the Uptake (Lg. Intestine, 1 h after dosing) was 0.088 ± 0.083 % injected Dose/gram. It also gave an Uptake (Lg. Intestine, 2 h after dosing) of 2.878 ± 2.718 % injected Dose/gram, an Uptake (Lg. Intestine, 4 h after dosing) of 1.865 ± 0.963 % injected Dose/gram and an Uptake (Lg. Intestine, 24 h after dosing) of 0.02 ± 0 % injected Dose/gram. The Uptake (Lg. Intestine, 48 h after dosing) was 0.018 ± 0.013 % injected Dose/gram, the Uptake (Liver, 1 h after dosing) was 0.658 ± 0.074 % injected Dose/gram and the Uptake (Liver, 2 h after dosing) was 0.358 ± 0.083 % injected Dose/gram. It also gave an Uptake (Liver, 4 h after dosing) of 0.065 ± 0.024 % injected Dose/gram, an Uptake (Liver, 24 h after dosing) of 0.028 ± 0.01 % injected Dose/gram and an Uptake (Liver, 48 h after dosing) of 0.018 ± 0.012 % injected Dose/gram. The Uptake (Lungs, 1 h after dosing) was 0.083 ± 0.032 % injected Dose/gram, the Uptake (Lungs, 2 h after dosing) was 0.048 ± 0.005 % injected Dose/gram and the Uptake (Lungs, 4 h after dosing) was 0.023 ± 0.005 % injected Dose/gram. It also gave an Uptake (Lungs, 24 h after dosing) of 0.013 ± 0.005 % injected Dose/gram, an Uptake (Lungs, 48 h after dosing) of 0.01 ± 0 % injected Dose/gram and an Uptake (Muscle, 1 h after dosing) of 0.028 ± 0.01 % injected Dose/gram. For the same substance, the Uptake (Muscle, 2 h after dosing) was 0.043 ± 0.013 % injected Dose/gram, the Uptake (Muscle, 4 h after dosing) was 0.013 ± 0.005 % injected Dose/gram and the Uptake (Muscle, 24 h after dosing) was 0.003 ± 0.005 % injected Dose/gram. The Uptake (Muscle, 48 h after dosing) was 0.051 ± 0.1 % injected Dose/gram, the Uptake (Sm. Intestine, 1 h after dosing) was 1.493 ± 0.554 % injected Dose/gram and the Uptake (Sm. Intestine, 2 h after dosing) was 0.86 ± 0.389 % injected Dose/gram. It also gave an Uptake (Sm. Intestine, 4 h after dosing) of 0.128 ± 0.05 % injected Dose/gram, an Uptake (Sm. Intestine, 24 h after dosing) of 0.01 ± 0 % injected Dose/gram and an Uptake (Sm. Intestine, 48 h after dosing) of 0.005 ± 0.006 % injected Dose/gram. For the same substance, the Uptake (Spleen, 1 h after dosing) was 0.06 ± 0.041 % injected Dose/gram, the Uptake (Spleen, 2 h after dosing) was 0.053 ± 0.005 % injected Dose/gram and the Uptake (Spleen, 4 h after dosing) was 0.025 ± 0.01 % injected Dose/gram. The Uptake (Spleen, 24 h after dosing) was 0.023 ± 0.005 % injected Dose/gram, the Uptake (Spleen, 48 h after dosing) was 0.01 ± 0.012 % injected Dose/gram and the Uptake (Stomach, 1 h after dosing) was 0.06 ± 0.055 % injected Dose/gram. The Uptake (Stomach, 2 h after dosing) was 0.2 ± 0.071 % injected Dose/gram, the Uptake (Stomach, 4 h after dosing) was 0.045 ± 0.017 % injected Dose/gram and the Uptake (Stomach, 24 h after dosing) was 0.01 ± 0 % injected Dose/gram. For the same substance, the Uptake (Stomach, 48 h after dosing) was 0.013 ± 0.013 % injected Dose/gram, the Uptake (Tail, 1 h after dosing) was 0.245 ± 0.179 % injected Dose/gram and the Uptake (Tail, 2 h after dosing) was 0.183 ± 0.056 % injected Dose/gram. For the same substance, the Uptake (Tail, 4 h after dosing) was 0.118 ± 0.041 % injected Dose/gram, the Uptake (Tail, 24 h after dosing) was 0.065 ± 0.044 % injected Dose/gram and the Uptake (Tail, 48 h after dosing) was 0.01 ± 0.008 % injected Dose/gram. The “Clearance (time course of activity in vital tissues and blood)” value (comparison of the two probes) was “cleared at similar rates”.
